Key:
[1] = test system: Erysiphe graminis; details: 500 ppm, spray on wheat (Norin-61-go) at 1.5-leaf stage, preventive, 6 to 7 days after inoculation
Protocol: In each test, the controlling index was determined on the basis of the following standards:
Wheat (cultivar: Norin-61-go) was cultivated in a plastic pot having a diameter of 7.5 cm, and when it reached 1.5-leaf stage, 10 ml of a chemical solution having the carboxylic acid amide derivative of the formula (I) or a salt thereof adjusted to a prescribed concentration, was applied by a spray gun. After the chemical solution dried (the same day as the application), conidia of Erysiphe graminis were dusted and inoculated and maintained in a constant temperature chamber at 20° C. From 6 to 7 days after the inoculation, the area of sporulation was investigated, and the controlling index was determined in accordance with the above evaluation standards.

[2] = test system: Botrytis cinerea; experiment: Test on preventive effect against kidney bean gray mold; format: in vivo; details: 500 ppm, spray on kidney bean (Taisyou Kintoki), 3 to 4 days after inoculation
[3] = test system: sheath blight of rice; details: as disclosed in Patent Document 2 (JP-A-2005-179234); cited from earlier work

SMILES	controlling index (area of sporulation) [1]	controlling index (length of lesions) [2]	effect against sheath blight of rice [3]	melting point [°C]
CC(C)(NC(=O)c1ccncc1F)C(=O)c1ccc(-c2ccc(OC(F)(F)F)cc2)cc1 [Comparative Compound 1, 3-fluoro-N-(2-methyl-1-oxo-1-(4′-(trifluoromethoxy)biphenyl-4-yl)propan-2-yl)isonicotinamide]	1 (Length of lesions, number of lesions or area of sporulation is at least 70% of non-treated plot)	1 (Length of lesions, number of lesions or area of sporulation is at least 70% of non-treated plot)	effective	
Cc1c(C(=O)C(C)(C)NC(=O)c2ncccc2C(F)(F)F)ccc2c1OC(F)(F)O2 [compound No. 2-1, N-[2-[(2,2-difluoro-4-methyl-1,3-benzodioxolan-5-yl)carbonyl]-2-propyl]-3-trifluoromethyl-2-pyridinecarboxamide]				130 to 134

Reference: US20100222337A1, “FUNGICIDAL COMPOSITION CONTAINING CARBOXYLIC ACID AMIDE DERIVATIVE” (Ishihara Sangyo Kaisha, Ltd., priority 2005, published 2010)
